Source: patent US11298372B2, “Composition for ameliorating loss of hair and graying of hair, and use thereof” (National University Corporation Tokyo Medical and Dental …, priority 2016, dated 2022)

Key:
[1] = tested on: Col17A1; assay: Induction of COL17A1 expression in HaCat cells (Western blotting); format: cell-based, human; settings: 48 hours
Procedure: HaCat cells (human epidermal keratinocyte strain) were seeded in 10% FBS-containing D-MEM medium in a 6-well plate at 1×10^5 cells per well, and apocynin was added to be 1-60 μM. After 48 hours of culturing, an anti-Col17A1 antibody was used as the primary antibody, and Western blotting was carried out. An anti-GAPDH antibody was used as the internal control. The 180 KDa band of Col17A1 and the internal control GAPDH band were quantified for their densities using an LAS-3000 luminescence image analyzer. […] HaCat cells (human epidermal keratinocyte strain) were seeded in 10% FBS-containing D-MEM medium in a 6-well plate at 1×10^5 cells per well, and ascorbic acid (Wako Pure Chemical Industries, Ltd.) was added to be 0.3-60 jag/ml. After 48 hours of culturing, an anti-Col17A1 antibody was used as the primary antibody, and Western blotting was carried out. An anti-β-tubulin antibody was used as the internal control. The 180 KDa band of Col17A1 and the internal control β-tubulin band were quantified for their densities using an LAS-3000 luminescence image analyzer. […] HaCat cells (human epidermal keratinocyte strain) were seeded in 10% FBS-containing D-MEM medium in a 6-well plate at 1×10^5 cells per well, and Marimastat (MMP inhibitor) was added to be 3 μM. After 48 hours of culturing, an anti-Col17A1 antibody was used as the primary antibody, and Western blotting was carried out. An anti-β-tubulin antibody was used as the internal control. The 180 KDa band of Col17A1 and the internal control β-tubulin band were quantified for their densities using an LAS-3000 luminescence image analyzer.

[2] = tested on: aged mice; assay: Comparison of the hair-increasing effects of apocynin and minoxidil in aged mice; format: in vivo, mouse; settings: 17-month-old female C57BL/6NCrSIc mice, 100 μl of 200 μM solution applied for 28 days, day 14; comparator Ri-UP X5 PLUS (minoxidil 5 g/100 ml)
Procedure: Apocynin (A727200; Tront Research Chemicals) was adjusted to the concentration of 20 mM with DMSO, and 200 LM apocynin solution (1% apocynin 20 mM, 49% water, 50% ethanol) was prepared as the solution to be applied on mice. As the control solution, 1% DMSO (Sigma Aldrich), 49% water, 50% ethanol was prepared. For the minoxidil solution, Ri-UP X5 PLUS® (5 g/100 ml, Taisho Pharmaceutical Co., Ltd.) was used. After six 17-month-old female C57BL/6[…] mice were anesthetized by inhalation of isoflurane (Pfizer), the hair on the back of the neck was removed. The three mice in the minoxidil treatment group were applied with 100 μl of minoxidil, and the apocynin treatment group with 100 μl of the 200 μM apocynin solution for 28 days. For the follow-ups, photo images of the representative first day (day 1) and the last day (day 28) are shown (FIG. 12).

[3] = tested on: aged mice; assay: Hair-increasing effect in aged mice (application on the back of the neck); format: in vivo, mouse; settings: 26-27-month-old female C57BL/6NCrSlc mice, 100 μl of 200 μM solution applied for 28 days, day 28
Procedure: Apocynin (A727200; Tront Research Chemicals) was adjusted to the concentration of 20 mM with DMSO, and 200 LM apocynin solution (1% apocynin 20 mM, 49% water, 50% ethanol) was prepared as the solution to be applied on mice. As the control solution, 1% DMSO (Sigma Aldrich), 49% water, 50% ethanol was prepared. After an anesthetic procedure was performed on five 27-month-old and one 26-month-old female C57BL/6[…] mice, hair on the back of the neck was removed. The three mice in the control solution treatment group were applied with 100 μl of the control solution, and the apocynin solution treatment group with 100 μl of the 200 μM apocynin solution for 28 days. For the follow-ups, photo images of the representative first day (day 1) and the last day (day 28) are shown (FIG. 11).

[4] = tested on: irradiated mice; assay: Application test on the back of irradiated mice; format: in vivo, mouse; settings: 7-week-old male C57BL/6NCrSlc mice, 5 Gy, 10 mg/ml in DMSO 125 μl applied on the back once a day, 5 times
Procedure: The hair on the lower back of 7-week-old male C57BL/6NCrSlc mice was removed. Sivelestat was dissolved in DMSO to be 10 mg/ml and 125 μl (=[…]) thereof was applied on the back of the sivelestat group mice. On the back of the control group mice, 125 μl of DMSO was applied. After application on the back, the skin of the two groups of mice (day 0) was irradiated with a low voltage radiation of 5 Gy using CABINET X-RAY SYSTEM (Faxitron X-ray Corporation). Up to day 4, the same medicinal agents described above were applied on the back once a day (for a total of 5 times), and weekly follow-ups were carried out after that.

[5] = tested on: irradiated mice; assay: Test of intradermal administration in irradiated mice; format: in vivo, mouse; settings: 7-week-old male C57BL/6NCrSlc mice, 5 Gy, 5 mg/ml in DMSO 200 μl (1000 μg) intradermally once a day, 5 times
Procedure: The hair on the lower back of 7-week-old male C57BL/6NCrSlc mice was removed. Sivelestat was dissolved in DMSO to be 5 mg/ml and 200 μl (=1000 μg) thereof was administered intradermally on back of the sivelestat group mice. On the back of the control group mice, 200 μl of DMSO was administered intradermally. After intradermal administration, the skin of the two groups of mice (day 0) was irradiated with a low voltage radiation of 5 Gy using CABINET X-RAY SYSTEM (Faxitron X-ray corporation). Up to day 4, the same medicinal agents described above were intradermally administered on the back once a day (for a total of 5 times), and weekly follow-ups were carried out after that.

O=C1O[C@H]([C@@H](O)CO)C(O)=C1O [ascorbic acid]
Col17A1 expression (180 KDa band, Western blotting) ([1]; ascorbic acid 0.3-60 jag/ml, β-tubulin internal control): increase of Col17A1 was observed along with the increase of ascorbic acid

CNC(=O)[C@@H](NC(=O)[C@H](CC(C)C)[C@H](O)C(=O)NO)C(C)(C)C [Marimastat]
Col17A1 expression (180 KDa band, Western blotting) ([1]; Marimastat 3 μM, β-tubulin internal control): increase of Col17A1 was observed

COc1cc(C(C)=O)ccc1O [apocynin]
Col17A1 expression (180 KDa band, Western blotting) ([1]; apocynin 1-60 μM, GAPDH internal control): increase of Col17A1 was observed along with the increase of apocynin | hair growth effect versus minoxidil [2]: significant hair growth effect compared to the minoxidil-administered group | hair growth effect versus control solution [3]: significant hair growth effect compared to the control group

CC(C)(C)C(=O)Oc1ccc(S(=O)(=O)Nc2ccccc2C(=O)NCC(=O)[O-])cc1.O.O.O.O.[Na+] [Sivelestat, Monosodium N-{2-[4-(2,2-dimethylpropanoyloxy)-phenylsulfonylamino]benzoyl}aminoacetate tetrahydrate]
hair growth versus control group [4]: tendency to grow faster | graying ([4]; 14 weeks and 28 weeks): suppression of graying was seen | hair growth versus control group [5]: tendency to grow more | graying ([5]; 14 weeks and 28 weeks): suppression of graying was seen
